{"source": "patent US6818612B2", "about": "“Use of parvovirus capsid particles in the inhibition of cell proliferation and migration” (priority 1998, dated 2004)", "key": {"[1]": {"test_system": "hematopoietic cells obtained from the bone marrow of monkeys", "experiment": "Colony formation assay on monkey bone marrow cells (Baboon)", "type": "cell-based", "details": "FIG. 2, varying concentrations of capsid", "procedure": "(§1) Additionally, colony formation assays in the presence of B19 parvovirus […] were performed, as described above, using hematopoietic cells obtained from the bone marrow of monkeys (Baboons and Macaques)."}, "[2]": {"test_system": "hematopoietic cells obtained from the bone marrow of monkeys", "experiment": "Colony formation assay on monkey bone marrow cells (Macaque)", "type": "cell-based", "details": "FIG. 2, varying concentrations of capsid", "procedure": "as §1"}, "[3]": {"test_system": "human fetal liver cells", "experiment": "Colony formation assay (Stem cell CFU kit, 11 day) of fetal liver cells", "type": "cell-based", "from_the_text": "In a first set of experiments, it was discovered that B19 parvovirus capsids inhibit hematopoiesis and that these molecules could be used to reduce the overproduction of red blood cells, white blood cells, and blood platelets, as is experienced by patients suffering from hematological proliferative diseases, such as Polycytemia Vera. (See FIG. 1A). In a first set of experiments, fresh human fetal liver cells, umbilical cord blood cells, and bone marrow cells were contacted with recombinant B19 parvovirus capsids in a colony formation assay. The general features of a colony formation assay are depicted in FIG. 1B. The ability of the B19 parvovirus capsids to inhibit hematopoiesis was verified by the reduction of colony formation in the presence of the capsids, as compared to untreated control populations of cells. A more detailed description of these experiments is provided below.\nTo obtain fetal liver tissue, human fetuses 6-12 weeks of gestational age were obtained from legal abortions; the patients had volunteered to donate fetal tissue. Gestational age was estimated according to specific anatomical markers and is given as menstruational age. Abortions were performed with vacuum aspirations. Fetal liver was dissected under sterile conditions, placed in a sterile tube containing RPMI1640 and disintegrated by passage through a vinyl mesh to form a single cell suspension. Nucleated cells were then washed three times, counted and diluted in culture medium.\n(§2) A commercial kit—the “Stem cell CFU kit” (GIBCO BRL, Life Technology Inc., NY, USA)—was used to perform the colony formation assays. The kit provides a semi-solid support that mimics the extracellular matrix produced by stromal cells. Other components included in the kit are: Iscove's modified Dulbecco's medium, modified fetal bovine serum, methylcellulose, 2-mercaptoethanol, conditioned medium and erythropoietin. The colonies that were formed in the assay were identified as BFU-E (burst forming unit-erythroid cells) with densely packed hemoglobonized cells, CFU-GM (colony forming units-granulocytes, macrophages) with arrangements of non-hemoglobinized cells, and CFU-GEMM (colony forming units-granulocytes, erythroid cells, macrophages, megakaryocytes) with hemoglobinized cells and small and large peripheral cells.\n(§3) Recombinant B19 parvovirus empty capsid particles (Kajigaya et al., Proc Natl Acad Sci USA, 88:4646 (1991)) were prepared in a recombinant baculovirus-insect cell (Spodofera frugiperda) expression system. (Kajigaya et al., Proc Natl Acad Sci USA, 88:4646 (1991)). The isolated or purified capsids were diluted in buffer (20 mM Tris, 0.5M NaCl, pH 8.5) and 30 μL of each dilution was added to approximately 25×10^3 cells (50×10^3 for postnatal cells) in 100 μL of culture medium and incubated for 1 hour at 4° C. The mixtures were then transferred to incubation dishes and culture medium was added to a final volume of 0.5 ml per well. The cells were then incubated for 11 days in a humidified atmosphere at 5% CO2, and were scored for BFU-E, CFU-GM and CFU-GEMM derived colony formation."}, "[4]": {"test_system": "umbilical cord blood cells", "experiment": "Colony formation assay on cord blood cells", "type": "cell-based, human", "details": "for Colony Counts (% of medium control) BFU-E / Colony Counts (% of medium control) CFU-GEMM / Colony Counts (% of medium control) CFU-GM: Cord blood cells, 11 day culture", "from_the_text": "as §2, §3\n(§4) The inhibitory effect of B19 parvovirus capsids on colony formation was also tested using fresh stem cells derived from cord blood and adult bone marrow samples. Colony formation assays in the presence of B19 parvovirus capsids were performed on cells obtained from umbilical cord blood and bone marrow using the protocol described above. Umbilical cord blood samples were obtained immediately after vaginal delivery from normal births. Samples of adult bone marrow were obtained from healthy allogeneic donors. Suspensions of fresh cells were heparinized and diluted in 0.9% NaCl and separated on Lymphoprep (Nycomed, Parma, Oslo, Norway) for gradient centrifugation at 2000 rpm for 20 min. Cells were carefully removed with a Pasteur pipette, washed three times in 0.9% NaCl, counted and diluted in culture medium in preparation for the colony formation assays."}, "[5]": {"test_system": "adult bone marrow cells", "experiment": "Colony formation assay on adult bone marrow cells", "type": "cell-based, human", "details": "for Colony Counts (% of medium control) BFU-E / Colony Counts (% of medium control) CFU-GEMM / Colony Counts (% of medium control) CFU-GM: Bone marrow cells, 11 day culture", "from_the_text": "as §2, §3, §4"}, "[6]": {"details": "capsid only, B19 parvovirus capsid 0.14 μg/ml, fetal liver cells, 11 day culture"}, "[7]": {"details": "capsid only, B19 parvovirus capsid 7 μg/ml, fetal liver cells, 11 day culture"}, "[8]": {"details": "fetal liver cells, 0.07 μg/ml VP1/2 capsid, FIG. 3"}, "[9]": {"details": "fetal liver cells, B19 parvovirus capsid 0.007 μg/ml, 11 day culture"}, "[10]": {"details": "fetal liver cells, B19 parvovirus capsid 0.7 μg/ml, 11 day culture"}, "[11]": {"details": "fetal liver cells, B19 parvovirus capsid 70.0 μg/ml, pre-incubated prior to 11 day culture"}, "[12]": {"details": "B19 parvovirus capsid 0.0007 μg/ml"}, "[13]": {"details": "B19 parvovirus capsid 0.007 μg/ml"}, "[14]": {"details": "B19 parvovirus capsid 0.07 μg/ml"}, "[15]": {"details": "B19 parvovirus capsid 0.7 μg/ml"}, "[16]": {"details": "B19 parvovirus capsid 7.0 μg/ml"}, "[17]": {"details": "compared with fetal liver cells"}}}
{"substance": "B19 parvovirus capsid: Recombinant empty B19 parvovirus capsid particles (95% VP2, 5% VP1) from a baculovirus-insect cell expression system", "values": [{"measurement": "primate hematopoietic cell growth", "setting": "[1]", "value": "decreased in concordance with an increase in concentration of B19 parvovirus capsid"}, {"measurement": "primate hematopoietic cell growth", "setting": "[2]", "value": "decreased in concordance with an increase in concentration of B19 parvovirus capsid"}, {"measurement": "inhibition of fetal liver cell colony formation", "setting": "[3]; B19 parvovirus capsids 0.14 μg/ml, in the absence of sera", "value": "significantly inhibited"}, {"measurement": "Colony Counts (% of medium control) BFU-E", "setting": "[3]; [6]", "value": "18% of medium control"}, {"measurement": "Colony Counts (% of medium control) CFU-GEMM", "setting": "[3]; [6]", "value": "63% of medium control"}, {"measurement": "Colony Counts (% of medium control) CFU-GM", "setting": "[3]; [6]", "value": "17% of medium control"}, {"measurement": "Colony Counts (% of medium control) BFU-E", "setting": "[3]; [7]", "value": "43% of medium control"}, {"measurement": "Colony Counts (% of medium control) CFU-GEMM", "setting": "[3]; [7]", "value": "21% of medium control"}, {"measurement": "Colony Counts (% of medium control) CFU-GM", "setting": "[3]; [7]", "value": "30% of medium control"}, {"measurement": "colony formation, % of the medium control", "setting": "[3]; [8]", "value": "~60 % of the medium control"}, {"measurement": "inhibition of colony formation", "setting": "[3]; [8]", "value": "approximately 40%"}, {"measurement": "inhibition of colony formation of hematopoietic cells", "setting": "[3]; fetal liver cells, 70.0 μg/ml B19 parvovirus capsid", "value": "considerable inhibition"}, {"measurement": "lowest concentration at which inhibition of colony formation of hematopoietic cells was seen", "setting": "[3]; fetal liver cells, 11 day colony formation assay, 'as little as' / 'as low as'", "value": 0.007, "unit": "µg/mL"}, {"measurement": "Colony Counts (% of medium control) BFU-E", "setting": "[3]; [9]", "value": "79% of medium control"}, {"measurement": "Colony Counts (% of medium control) CFU-GEMM", "setting": "[3]; [9]", "value": "94% of medium control"}, {"measurement": "Colony Counts (% of medium control) CFU-GM", "setting": "[3]; [9]", "value": "95% of medium control"}, {"measurement": "Colony Counts (% of medium control) BFU-E", "setting": "[3]; [10]", "value": "39% of medium control"}, {"measurement": "Colony Counts (% of medium control) CFU-GEMM", "setting": "[3]; [10]", "value": "63% of medium control"}, {"measurement": "Colony Counts (% of medium control) CFU-GM", "setting": "[3]; [10]", "value": "54% of medium control"}, {"measurement": "Colony Counts (% of medium control) BFU-E", "setting": "[3]; [11]", "value": "22% of medium control"}, {"measurement": "Colony Counts (% of medium control) CFU-GEMM", "setting": "[3]; [11]", "value": "31% of medium control"}, {"measurement": "Colony Counts (% of medium control) CFU-GM", "setting": "[3]; [11]", "value": "14% of medium control"}, {"measurement": "Colony Counts (% of medium control) BFU-E", "setting": "[4]; [12]", "value": "84% of medium control"}, {"measurement": "Colony Counts (% of medium control) CFU-GEMM", "setting": "[4]; [12]", "value": "93% of medium control"}, {"measurement": "Colony Counts (% of medium control) CFU-GM", "setting": "[4]; [12]", "value": "79% of medium control"}, {"measurement": "Colony Counts (% of medium control) BFU-E", "setting": "[4]; [13]", "value": "57% of medium control"}, {"measurement": "Colony Counts (% of medium control) CFU-GEMM", "setting": "[4]; [13]", "value": "70% of medium control"}, {"measurement": "Colony Counts (% of medium control) CFU-GM", "setting": "[4]; [13]", "value": "67% of medium control"}, {"measurement": "Colony Counts (% of medium control) BFU-E", "setting": "[4]; [14]", "value": "49% of medium control"}, {"measurement": "Colony Counts (% of medium control) CFU-GEMM", "setting": "[4]; [14]", "value": "50% of medium control"}, {"measurement": "Colony Counts (% of medium control) CFU-GM", "setting": "[4]; [14]", "value": "72% of medium control"}, {"measurement": "Colony Counts (% of medium control) BFU-E", "setting": "[4]; [15]", "value": "33% of medium control"}, {"measurement": "Colony Counts (% of medium control) CFU-GEMM", "setting": "[4]; [15]", "value": "43% of medium control"}, {"measurement": "Colony Counts (% of medium control) CFU-GM", "setting": "[4]; [15]", "value": "62% of medium control"}, {"measurement": "Colony Counts (% of medium control) BFU-E", "setting": "[4]; [16]", "value": "10% of medium control"}, {"measurement": "Colony Counts (% of medium control) CFU-GEMM", "setting": "[4]; [16]", "value": "43% of medium control"}, {"measurement": "Colony Counts (% of medium control) CFU-GM", "setting": "[4]; [16]", "value": "54% of medium control"}, {"measurement": "growth of cells obtained from human cord blood", "setting": "[4]; FIG. 1C, varying concentrations of capsid", "value": "decreased as the concentration of B19 parvovirus capsid increased"}, {"measurement": "ability to inhibit hematopoietic cells obtained from cord blood", "setting": "[4]; [17]", "value": "comparable to that exhibited with fetal liver cells"}, {"measurement": "Colony Counts (% of medium control) BFU-E", "setting": "[5]; [12]", "value": "86% of medium control"}, {"measurement": "Colony Counts (% of medium control) CFU-GEMM", "setting": "[5]; [12]", "value": "78% of medium control"}, {"measurement": "Colony Counts (% of medium control) CFU-GM", "setting": "[5]; [12]", "value": "77% of medium control"}, {"measurement": "Colony Counts (% of medium control) BFU-E", "setting": "[5]; [13]", "value": "76% of medium control"}, {"measurement": "Colony Counts (% of medium control) CFU-GEMM", "setting": "[5]; [13]", "value": "78% of medium control"}, {"measurement": "Colony Counts (% of medium control) CFU-GM", "setting": "[5]; [13]", "value": "80% of medium control"}, {"measurement": "Colony Counts (% of medium control) BFU-E", "setting": "[5]; [14]", "value": "63% of medium control"}, {"measurement": "Colony Counts (% of medium control) CFU-GEMM", "setting": "[5]; [14]", "value": "44% of medium control"}, {"measurement": "Colony Counts (% of medium control) CFU-GM", "setting": "[5]; [14]", "value": "41% of medium control"}, {"measurement": "Colony Counts (% of medium control) BFU-E", "setting": "[5]; [15]", "value": "43% of medium control"}, {"measurement": "Colony Counts (% of medium control) CFU-GEMM", "setting": "[5]; [15]", "value": "28% of medium control"}, {"measurement": "Colony Counts (% of medium control) CFU-GM", "setting": "[5]; [15]", "value": "45% of medium control"}, {"measurement": "Colony Counts (% of medium control) BFU-E", "setting": "[5]; [16]", "value": "18% of medium control"}, {"measurement": "Colony Counts (% of medium control) CFU-GEMM", "setting": "[5]; [16]", "value": "6% of medium control"}, {"measurement": "Colony Counts (% of medium control) CFU-GM", "setting": "[5]; [16]", "value": "36% of medium control"}, {"measurement": "ability to inhibit hematopoietic cells obtained from bone marrow", "setting": "[5]; [17]", "value": "comparable to that exhibited with fetal liver cells"}]}
